Laboratory results taken from patent US5965744A, “Ortho-substituted benzoylguanidines, including composition and methods of using them” (priority 1993, dated 1999).
Structures can show the parent of a compound that is named as a salt.

How the values were obtained:
[1] = molecular target: T1, Na^+ /H^+ Exchanger of Rabbit Erythrocytes (Oryctolagus cuniculus, UniProt P23791); experiment: Inhibition of the Na^+ /H^+ Exchanger of Rabbit Erythrocytes (Na^+ influx by flame photometry); format: cell-based, rabbit (New Zealand White); conditions: cholesterol-fed rabbits, pH 7.4, 37° C.
T1 construct: The blood was removed from the aural arteries; endogenous in cells; host or cells: erythrocytes of cholesterol-fed New Zealand White rabbits (whole blood samples)
T1 sequence (P23791 whole entry): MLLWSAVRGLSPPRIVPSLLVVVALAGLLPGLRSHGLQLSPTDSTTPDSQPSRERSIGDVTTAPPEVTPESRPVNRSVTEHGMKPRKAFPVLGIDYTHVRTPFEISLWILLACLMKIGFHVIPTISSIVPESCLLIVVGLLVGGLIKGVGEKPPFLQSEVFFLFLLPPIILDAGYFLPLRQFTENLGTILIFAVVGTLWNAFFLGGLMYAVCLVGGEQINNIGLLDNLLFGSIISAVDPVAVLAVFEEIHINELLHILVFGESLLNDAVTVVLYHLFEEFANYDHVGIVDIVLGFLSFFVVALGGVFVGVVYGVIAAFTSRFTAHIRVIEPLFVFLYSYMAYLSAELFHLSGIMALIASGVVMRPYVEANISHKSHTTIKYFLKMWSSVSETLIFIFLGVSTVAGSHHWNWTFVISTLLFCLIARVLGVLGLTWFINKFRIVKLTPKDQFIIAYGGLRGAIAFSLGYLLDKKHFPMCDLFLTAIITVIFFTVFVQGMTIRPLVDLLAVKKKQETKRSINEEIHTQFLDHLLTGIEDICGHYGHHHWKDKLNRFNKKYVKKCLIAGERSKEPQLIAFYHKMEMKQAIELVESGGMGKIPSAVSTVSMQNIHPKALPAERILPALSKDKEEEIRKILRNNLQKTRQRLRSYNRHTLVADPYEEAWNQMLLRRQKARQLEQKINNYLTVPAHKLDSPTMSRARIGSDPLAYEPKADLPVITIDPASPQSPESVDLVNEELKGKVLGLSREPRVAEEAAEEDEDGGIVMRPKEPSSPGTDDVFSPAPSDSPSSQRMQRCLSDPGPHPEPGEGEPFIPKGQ
Text: Inhibition of the Na^+ /H^+ Exchanger of Rabbit Erythrocytes
New Zealand White rabbits (Ivanovas) received a standard diet containing 2% cholesterol for six weeks in order to activate the Na^+ /H^+ exchange and thus to be able to determine, by flame photometry, the Na^+ influx into the erythrocytes via Na^+ /H^+ exchange. The blood was removed from the aural arteries and rendered incoagulable using 25 IU of potassium heparin. A part of each sample was used for the duplicate determination of the hematocrit by means of centrifugation. Aliquots of in each case 100 μl were used for measuring the initial Na^+ content of the erythrocytes.
In order to determine the amiloride-sensitive sodium influx, 100 μl of each blood sample were in each case incubated, at pH 7.4 and 37° C., in 5 ml of a hyperosmolar salt/sucrose medium (mmol/l: 140 NaCl, 3 KCl, 150 sucrose, 0.1 ouabain, 20 tris(hydroxymethyl)aminomethane). The erythrocytes were then washed three times with ice-cold MgCl2 /ouabain solution ([…]: 112 MgCl2, 0.1 ouabain) and hemolyzed in 2.0 ml of distilled water. The intracellular sodium content was determined by flame photometry.
The net influx of Na^+ was calculated from the difference between the initial sodium values and the sodium content of the erythrocytes following incubation. The amiloride-inhibitable sodium influx was calculated from the difference in the sodium content of the erythrocytes following incubation with and without amiloride 3×10^-4 mol/l. This method was also employed in the case of the compounds according to the invention.

rat hearts = conditions: isolated rat hearts, cited from earlier work
cardiac arrhythmia = conditions: cited from earlier work

| Compound | IC50 [1] [nM] | also measured |
| --- | --- | --- |
| N=C(N)NC(=O)c1cc(C(F)(F)F)ccc1C(F)(F)F [Example 7, 2,5-Bis(trifluoromethyl)benzoylguanidine hydrochloride] | 160 |  |
| N=C(N)NC(=O)c1cc(I)cc(C(F)(F)F)c1F [Example 10, 2-Fluoro-5-iodo-3-trifluoromethylbenzoylguanidine hydrochloride] | 90 |  |
| N=C(N)NC(=O)c1cc(C(F)(F)F)ccc1Cl [Example 9, 2-Chloro-5-trifluoromethylbenzoylguanidine hydrochloride] | 160 |  |
| Cc1ccc(C)c(C(=O)NC(=N)N)c1 [Example 5, 2,5-Dimethylbenzoylguanidine hydrochloride] | 2000 |  |
| N=C(N)NC(=O)c1ccc(Cl)cc1Cl [Example 3, 2,4-Dichlorobenzoylguanidine hydrochloride] | 8000 |  |
| N=C(N)NC(=O)c1cccc(Cl)c1Cl [Example 1, 2,3-Dichlorobenzoylguanidine hydrochloride] | > 1000 |  |
| N=C(N)NC(=O)c1nc(Cl)c(N)nc1N [amiloride, Amiloride] |  | suppression of artificially induced ventricular fibrillation (rat hearts): completely suppress; undesirable side effects when treating cardiac arrhythmia (cardiac arrhythmia; accompanying the antiarrhythmic effect): hypotensive and saluretic effects; antiarrhythmic effect (cardiac arrhythmia; as antiarrhythmic agent): only weakly expressed |
| N=C(N)NC(=O)c1cc(C(F)(F)F)ccc1F [Example 8, 2-Fluoro-5-trifluoromethylbenzoylguanidine hydrochloride] | 700 |  |
| CCN(c1nc(N)c(C(=O)NC(=N)N)nc1Cl)C(C)C [ethylisopropylamiloride, Ethylisopropylamiloride] |  | potency relative to amiloride in ventricular fibrillation model (rat hearts; compared with amiloride): even more potent than amiloride |
| N=C(N)NC(=O)c1cccc(C(F)(F)F)c1F [Example 2, 2-Fluoro-3-trifluoromethylbenzoylguanidine hydrochloride] | 2000 |  |
| N=C(N)NC(=O)c1cc(Cl)ccc1Cl [Example 6, 2,5-Dichlorobenzoylguanidine hydrochloride] | 1500 |  |
| N=C(N)NC(=O)c1ccc(C(F)(F)F)cc1F [Example 4, 2-Fluoro-4-trifluoromethylbenzoylguanidine hydrochloride] | 3000 |  |
